Data on 13 compounds can be found in PMC9000887, “Novel 1,2,3-Triazole-Coumarin Hybrid Glycosides and Their Tetrazolyl Analogues: Design, Anticancer Evaluation and Molecular Docking Targeting EGFR, VEGFR-2 and CDK-2” (Molecules, 2022).

For data set [1], the system named is human melanoma (A-375) cancer cell line. The data set can be described thus: MTT cytotoxicity assay, A-375. As to conditions: Homo sapiens; for inhibition at 100 µM: A-375, read-out: % Inhibition A-375; for IC50: A-375, read-out: IC50 (Mean ± SEM) A-375.
Method: (§1) After 48 h incubation, the medium was aspirated and then 40 μL MTT salt (2.5 mg/mL) was added for a further 4 h. […] Doxorubicin was used as the positive control and 0.5% DMSO was used as the negative control.
Data set [2] concerns human colon (Caco-2) cancer cell line. The data set can be described thus: MTT cytotoxicity assay, Caco-2. Particulars: for % Inhibition Caco-2: Caco-2, at 100 µM, MTT, (-) No activity detected; for IC50: read-out: IC50 (Mean ± SEM) Caco-2, Caco-2, MTT, three independent determinations. In general terms: Tetrazolium dyes change colour on reduction, which living cells bring about.
Method: as §1

Data set [3] concerns human prostate (PC-3) cancer cell line. The data set can be described thus: MTT cytotoxicity assay, PC-3. As to conditions: Homo sapiens; for inhibition at 100 µM: read-out: % Inhibition PC-3; for IC50: read-out: IC50 (Mean ± SEM) PC-3.
Method: as §1
Data set [4] relates to human pancreatic (Paca-2) cancer cell line. The data set can be described thus: MTT cytotoxicity assay, Paca-2. Particulars: Homo sapiens; for inhibition at 100 µM: PaCa-2, read-out: % Inhibition Paca-2; for IC50: PaCa-2, read-out: IC50 (Mean ± SEM) Paca-2.
Method: as §1
The test system of data set [5] is human melanoma (Mel-501) cancer cell line. The data set can be described thus: MTT cytotoxicity assay, Mel-501. As to conditions: Homo sapiens; for inhibition at 100 µM: read-out: % Inhibition Mel-501; for IC50: read-out: IC50 (Mean ± SEM) Mel-501.
Method: as §1

For orientation: inhibition means the share of the control response that was lost under treatment. By IC50 is commonly meant the concentration that gives 50% inhibition. For the compound `O=c1cc(-c2ccccc2)c2ccc(O)cc2o1` [Compound 1, 7-hydroxy-4-phenyl-2H-chromen-2-one], the inhibition at 100 µM in data set [1] was found to be 95%; in data set [3], 55.7%; in data set [4], 79%; in data set [5], 96.2%. Besides, the concentration for half-maximal inhibition (IC50) came out at 12.9 ± 0.6 µM in data set [1], 62.3 ± 1.3 µM in data set [4] and 28.6 ± 0.4 µM in data set [5]. For the same compound, the “% Inhibition Caco-2” value in data set [2] is recorded as 40.5%.
One may read the melting point as the temperature of the solid-liquid transition. The compound `N#CCOc1ccc2c(-c3ccccc3)cc(=O)oc2c1` [Compound 2, 2-((2-Oxo-4-phenyl-2H-chromen-7-yl)oxy)acetonitrile] showed a melting point of 183 to 184 °C. In addition, in data set [1], the inhibition at 100 µM was 6.5%. Moreover, the inhibition at 100 µM in data set [3] was 10.5%. Also, the inhibition at 100 µM in data set [4] was 44.1%. In data set [5], the inhibition at 100 µM was determined as 35.6%.
The like results for `O=c1cc(-c2ccccc2)c2ccc(OCc3nn[nH]n3)cc2o1` [Compound 3, 7-((2H-Tetrazol-5-yl)methoxy)-4-phenyl-2H-chromen-2-one] were, in that order, 219 to 221 °C, 55.3%, 12.2%, 55.6% and 48.4%.
`CC(=O)OC[C@H]1O[C@@H](n2nnc(COc3ccc4c(-c5ccccc5)cc(=O)oc4c3)n2)[C@H](OC(C)=O)[C@@H](OC(C)=O)[C@H]1OC(C)=O` [Compound 5, 4-Phenyl-7-((1-(2,3,4,6-tetra-O-actyl-β-D-galactopyranosyl)-2H-tetrazol-5-yl)methoxy)-2H-chromen-2-one] displayed a melting point of 122 to 124 °C. Besides, the inhibition at 100 µM in data set [1] is 23.1%. Besides, the inhibition at 100 µM in data set [3] was 15%. Also, the inhibition at 100 µM in data set [4] is 56.9%. In addition, in data set [5], the inhibition at 100 µM worked out at 68.4% and the IC50 was determined as 72.1 ± 1.2 µM.
In turn, `O=c1cc(-c2ccccc2)c2ccc(OCc3nnn([C@@H]4O[C@H](CO)[C@H](O)[C@H](O)[C@H]4O)n3)cc2o1` [Compound 7] returned a melting point of 204 to 205 °C. Also, the inhibition at 100 µM in data set [1] was found to be 13.8%. In addition, the inhibition at 100 µM in data set [3] is 0%. In addition, the inhibition at 100 µM in data set [4] worked out at 21.3%. The inhibition at 100 µM in data set [5] amounted to 22.3%.
The compound `O=c1cc(-c2ccccc2)c2ccc(OCc3nnn([C@@H]4OC[C@@H](O)[C@H](O)[C@H]4O)n3)cc2o1` [Compound 8] displayed a melting point of 195 to 196 °C. In data set [1], the inhibition at 100 µM turned out to be 95% and the concentration for half-maximal inhibition (IC50) turned out to be 13.9 ± 0.2 µM. For the same compound, in data set [2], the “% Inhibition Caco-2” value amounted to 97% and the half-inhibitory concentration (IC50) amounted to 52.5 ± 1.3 µM. Moreover, in data set [3], the inhibition at 100 µM was found to be 98.1% and the 50% inhibitory concentration (IC50) came to 48.2 ± 0.7 µM. In addition, in data set [4], the inhibition at 100 µM turned out to be 96.5% and the concentration for half-maximal inhibition (IC50) turned out to be 23.8 ± 0.9 µM. For the same compound, in data set [5], the inhibition at 100 µM was 98.1% and the half-maximal inhibitory concentration (IC50) was 19.4 ± 0.4 µM.
Turning to `O=c1cc(-c2ccccc2)c2ccc(OCc3nnn(CCOCCO)n3)cc2o1` [Compound 9, 7-((2-(2-(2-Hydroxyethoxy)ethyl)-2H-tetrazol-5-yl)methoxy)-4-phenyl-2H-chromen-2-one], the inhibition at 100 µM is 84.1% in data set [1], 95.9% in data set [3], 94.7% in data set [4] and 97.7% in data set [5]. Also, the IC50 in data set [1] worked out at 15 ± 0.04 µM; in data set [2], 38.1 ± 0.4 µM; in data set [3], 47.4 ± 1.4 µM; in data set [4], 28.3 ± 0.7 µM; in data set [5], 30.2 ± 0.5 µM. Further, the “% Inhibition Caco-2” value in data set [2] was found to be 99.5%.
With `C#CCOc1ccc2c(-c3ccccc3)cc(=O)oc2c1` [Compound 11, 4-Phenyl-7-(prop-2-yn-1-yloxy)-2H-chromen-2-one], the melting point lay in the range of 116 to 117 °C. In addition, the inhibition at 100 µM in data set [1] came out at 9.1%. For the same compound, the “% Inhibition Caco-2” value in data set [2] came to 0%. For the same compound, in data set [3], the inhibition at 100 µM came to 16.7%. For the same compound, the inhibition at 100 µM in data set [4] was 58.1%. For the same compound, in data set [5], the inhibition at 100 µM turned out to be 44%.
`CC(=O)OC[C@H]1O[C@@H](n2cc(COc3ccc4c(-c5ccccc5)cc(=O)oc4c3)nn2)[C@H](OC(C)=O)[C@@H](OC(C)=O)[C@H]1OC(C)=O` [Compound 14, 4-Phenyl-7-((1-(2,3,4,6-tetra-O-acetyl-β-D-galactopyranosyl)-1H-1,2,3-triazol-4-yl)methoxy)-2H-chromen-2-one] displayed a melting point of 93 to 94 °C. Besides, in data set [1], the inhibition at 100 µM is 96.8% and the IC50 turned out to be 12.4 ± 0.3 µM. Moreover, in data set [2], the “% Inhibition Caco-2” value was 89.8% and the IC50 came to 70.2 ± 1.4 µM. In addition, in data set [3], the inhibition at 100 µM was 80.2% and the half-inhibitory concentration (IC50) was 51.3 ± 1.6 µM. In data set [4], the inhibition at 100 µM turned out to be 94.9% and the IC50 amounted to 33.4 ± 0.6 µM. In addition, in data set [5], the inhibition at 100 µM came to 77.1% and the IC50 stood at 65.1 ± 1.2 µM.
`O=c1cc(-c2ccccc2)c2ccc(OCc3cn([C@@H]4O[C@H](CO)[C@@H](O)[C@H](O)[C@H]4O)nn3)cc2o1` [Compound 16, 4-Phenyl-7-((1-(β-D-glucopyranosyl)-1H-1,2,3-triazol-4-yl)methoxy)-2H-chromen-2-one] came in with a melting point of 180 to 182 °C. Also, in data set [1], the inhibition at 100 µM is 97.5% and the half-inhibitory concentration (IC50) was found to be 16.3 ± 0.6 µM. Further, in data set [2], the “% Inhibition Caco-2” value was determined as 99% and the IC50 worked out at 48.1 ± 0.4 µM. Further, in data set [3], the inhibition at 100 µM was 95.8% and the IC50 turned out to be 36.4 ± 1.1 µM. In data set [4], the inhibition at 100 µM turned out to be 96.9% and the IC50 was 23.8 ± 1.1 µM. For the same compound, in data set [5], the inhibition at 100 µM turned out to be 99.1% and the IC50 stood at 26.5 ± 0.7 µM.
For the compound `O=c1cc(-c2ccccc2)c2ccc(OCc3cn([C@@H]4O[C@H](CO)[C@H](O)[C@H](O)[C@H]4O)nn3)cc2o1` [Compound 17, 4-Phenyl-7-((1-(β-D-galactopyranosyl)-1H-1,2,3-triazol-4-yl)methoxy)-2H-chromen-2-one], the melting point is 185 to 186 °C. Besides, in data set [1], the inhibition at 100 µM turned out to be 98.5% and the IC50 was 39.6 ± 0.5 µM. In addition, in data set [2], the “% Inhibition Caco-2” value came out at 95.6% and the half-maximal inhibitory concentration (IC50) amounted to 48.1 ± 0.8 µM. Further, in data set [3], the inhibition at 100 µM was 97.3% and the IC50 is 41 ± 2.1 µM. In addition, in data set [4], the inhibition at 100 µM stood at 96.3% and the IC50 was 33.3 ± 0.5 µM. Besides, in data set [5], the inhibition at 100 µM was 98.6% and the IC50 came out at 35.8 ± 0.7 µM.
`O=c1cc(-c2ccccc2)c2ccc(OCc3cn([C@@H]4OC[C@@H](O)[C@H](O)[C@H]4O)nn3)cc2o1` [Compound 18, 4-Phenyl-7-((1-(β-D-Xylopyranosyl)-1H-1,2,3-triazol-4-yl)methoxy)-2H-chromen-2-one] had a melting point of 177 to 178 °C. For the same compound, in data set [1], the inhibition at 100 µM turned out to be 97.9% and the IC50 worked out at 8.5 ± 0.3 µM. In addition, in data set [2], the “% Inhibition Caco-2” value was 99.4% and the IC50 came to 61.9 ± 1.3 µM. In data set [3], the inhibition at 100 µM is 91.4% and the IC50 was 37.6 ± 0.4 µM. In data set [4], the inhibition at 100 µM stood at 96.9% and the 50% inhibitory concentration (IC50) amounted to 36.4 ± 1.2 µM. Also, in data set [5], the inhibition at 100 µM amounted to 98.5% and the IC50 was determined as 10 ± 0.1 µM.
Regarding `COc1cccc2c1C(=O)c1c(O)c3c(c(O)c1C2=O)C[C@@](O)(C(=O)CO)C[C@@H]3O[C@H]1C[C@H](N)[C@H](O)[C@H](C)O1` [Doxorubicin, reference compound], the IC50 in data set [1] amounted to 4.5 ± 0.07 µM; in data set [2] it was 3.7 ± 0.2 µM; in data set [3], 6.8 ± 0.2 µM; in data set [4], 19.4 ± 0.5 µM; in data set [5] it was 3.5 ± 0.3 µM.
